Experimental data as given in patent US20090306171A1, “INDOLE COMPOUNDS HAVING C4-AMIDE SUBSTITUENTS AND USE THEREOF AS PHOSPHOLIPASE-A2 INHIBITORS” (priority 2005, published 2009).

Assays:
Caco-2 monolayers = assay: Example 6B Caco-2 permeability study; format: in vitro ADME, human; conditions: for apparent permeability: apical to basolateral, Caco-2 monolayers
Procedure: The culture medium was refreshed every 48 hours.
Papp=(dQ/dt)×(1/C0)×(1/A)

Stability at low pH = format: physicochemical
human PLA2 IB enzyme = human PLA2 IB enzyme (Homo sapiens, UniProt P04054); conditions: pyrene substrate release from vesicles; Singer, Ghomashchi et al. 2002; read-out: IC50 value versus the human PLA2 IB enzyme; cited from earlier work
human PLA2 IB enzyme, sequence (P04054 23-148): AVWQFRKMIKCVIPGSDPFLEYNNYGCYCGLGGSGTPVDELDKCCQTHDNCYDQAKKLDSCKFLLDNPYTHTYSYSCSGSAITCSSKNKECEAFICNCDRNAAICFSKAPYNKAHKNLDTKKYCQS

[1] = Example 5A body weight gain, mice on high fat/high sucrose diabetogenic diet; format: in vivo; conditions: for body weight gain compared to the wild-type control group: week 4 and week 10
Procedure: (§1) ILY-4001 (FIG. 2) was evaluated as a PLA2 IB inhibitor in a set of experiments using wild-type mice and genetically deficient PLA2 (−/−) mice (also referred to herein as PLA2 knock-out (KO) mice). In these experiments, wild-type and PLA2 (−/−) mice were maintained on a high fat/high sucrose diet, details of which are described below.
(§2) Briefly, four groups were set up, each having six mice. Three of the groups included six wild-type PLA2 (+/+) mice in each group (eighteen mice total), and one of the groups included six genetically deficient PLA2 (−/−) mice. One of the wild-type groups was used as a wild-type control group, and was not treated with ILY-4001. The other two wild-type groups were treated with ILY-4001-one group at a lower dose (indicated as “L” in Table 1) of 25 mg/kg/day, and the other at a higher dose (indicated as “H” in Table 1) of 90 mg/kg/day. The group comprising the PLA2 (−/−) mice was used as a positive control group.
(§3) The experimental protocol used in this study was as follows. The four groups of mice, including wild type and isogenic PLA2 (−/−) C57BL/J mice were acclimated for three days on a low fat/low carbohydrate diet After the three day acclimation phase, the animals were fasted overnight and serum samples taken to establish baseline plasma cholesterol, triglyceride, and glucose levels, along with baseline body weight. The mice in each of the treatment groups were then fed a high fat/high sucrose diabetogenic diet (Research Diets D12331). 1000 g of the high fat/high sucrose D12331 diet was composed of casein (228 g), DL-methionine (2 g), maltodextrin 10 (170 g), sucrose (175 g), soybean oil (25 g), hydrogenated coconut oil (333.5 g), mineral mix S10001 (40 g), sodium bicarbonate (10.5 g), potassium citrate (4 g), vitamin mix V10001 (10 g), and choline bitartrate (2 g). This diet was supplemented with ILY-4001 treatments such that the average daily dose of the compound ingested by a 25 g mouse was: 0 mg/kg/day (wild-type control group and PLA2 (−/−) control group); 25 mg/kg/day (low-dose wild-type treatment group), or 90 mg/kg/day (high-dose wild-type treatment group). The animals were maintained on the high fat/high sucrose diet, with the designated ILY-4001 supplementation, for a period of ten weeks.
(§4) Body weight measurements were taken for all animals in all treatment and control groups at the beginning of the treatment period and at 4 weeks and 10 weeks after initiation of the study. (See Example 5A). Blood draws were also taken at the beginning of the treatment period (baseline) and at 4 weeks and 10 weeks after initiation of the study, in order to determine fasting glucose (See Example 5B). Cholesterol and triglyceride levels were determined from blood draws taken at the beginning of the treatment (baseline) and at ten weeks. (See Example 5C).
In the study generally described above in Example 5, body weight measurements were taken for all animals in all treatment and control groups at the beginning of the treatment period and at 4 weeks and 10 weeks after initiation of the study.

mouse PLA2 IB enzyme = mouse PLA2 IB enzyme (Mus musculus, UniProt Q9Z0Y2); conditions: pyrene substrate release from vesicles; Singer, Ghomashchi et al. 2002; read-out: IC50 value versus the mouse PLA2 IB enzyme; cited from earlier work
mouse PLA2 IB enzyme, sequence (Q9Z0Y2 23-146): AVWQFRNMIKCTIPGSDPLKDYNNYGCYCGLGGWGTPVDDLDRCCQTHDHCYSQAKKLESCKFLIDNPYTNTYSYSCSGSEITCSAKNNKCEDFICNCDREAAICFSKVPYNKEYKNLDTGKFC

[2] = Example 5C serum cholesterol and triglycerides, mice on high fat/high sucrose diabetogenic diet; format: in vivo; conditions: 10 weeks
Procedure: as §1, §2, §3
as §4, with “(See Example 5C).” left out

[3] = Example 5B fasting serum glucose, mice on high fat/high sucrose diabetogenic diet; format: in vivo; conditions: low dose (25 mg/kg/day)
Procedure: as §1, §2
The experimental protocol used in this study was as follows. […]
Body weight measurements were taken for all animals in all treatment and control groups at the beginning of the treatment period and at 4 weeks and 10 weeks after initiation of the study. […] Cholesterol and triglyceride levels were determined from blood draws taken at the beginning of the treatment (baseline) and at ten weeks. […]

[4] = Example 6C pharmokinetic study (IV and oral); format: in vivo, mice; conditions: 30 mg/kg oral
Excerpt: This example characterized ILY-4001 [2-(3-(2-amino-2-oxoacetyl)-1-(biphenyl-2-ylmethyl)-2-methyl-1H-indol-4-yloxy)acetic acid], alternatively referred to herein as methyl indoxam, with respect to activity, as determined by IC50 assay (Example 6A), with respect to cell absorption, as determined by in-vitro Caco-2 assay (Example 6B) and with respect to bioavailability, as determined using in-vivo mice studies (Example 6C).
This example evaluated the bioavailability of ILY-4001 [2-(3-(2-amino-2-oxoacetyl)-1-(biphenyl-2-ylmethyl)-2-methyl-1H-indol-4-yloxy)acetic acid], alternatively referred to herein as methyl indoxam. […]
Bioavailability was calculated as a ratio of AUC-oral/AUC-intravenous (IV). To determine this ratio, a first set of subject animals were given a measured intravenous (IV) dose of ILY-4001, followed by a determination of ILY-4001 levels in the blood at various time points after administration (e.g., 5 minutes through 24 hours). Another second set of animals was similarly dosed using oral administration, with blood levels of ILY-4001 determined at various time points after administration (e.g., 30 minutes through 24 hours). The level of ILY-4001 in systemic circulation were determined by generally accepted methods (for example as described in Evans, G., A Handbook of Bioanalysis and Drug Metabolism. Boca Raton, CRC Press (2004)). […]

| Compound | apparent permeability (Caco-2 monolayers) | stability at low pH (Stability at low pH) | IC50 (human PLA2 IB enzyme) [nM] | body weight gain compared to the wild-type control group ([1]; 25 mg/kg/d in diet) | body weight gain, extent of modulation relative to PLA2 (−/−) mice ([1]; 25 mg/kg/d, four weeks) | body weight gain compared to the wild-type control group ([1]; 90 mg/kg/d in diet) | body weight gain, extent of modulation relative to PLA2 (−/−) mice ([1]; 90 mg/kg/d, four weeks) | body weight gain, extent of modulation relative to PLA2 (−/−) mice ([1]; low-dose (25 mg/kg/d), ten weeks) | IC50 (mouse PLA2 IB enzyme) [nM] | plasma levels of cholesterol ([2]; high dose (90 mg/kg/day)) | plasma levels of triglycerides ([2]; high dose (90 mg/kg/day)) | plasma levels of cholesterol ([2]; low dose (25 mg/kg/day)) | plasma levels of triglycerides ([2]; low dose (25 mg/kg/day)) | fasting glucose levels ([3]; week four) | fasting glucose levels ([3]; week ten) | absorption from the GI lumen (Caco-2 monolayers; based on Caco-2 assays and pharmokinetic studies) | level of non-absorption from the GI tract into systemic circulation [4] [%] |
| --- | --- | --- | --- | --- | --- | --- | --- | --- | --- | --- | --- | --- | --- | --- | --- | --- | --- |
| Lucifer Yellow | around 2.82×10^−7+/−0.37×10^−7 cm/s |  |  |  |  |  |  |  |  |  |  |  |  |  |  |  |  |
| Cc1c(C(=O)C(N)=O)c2c(OCC(=O)O)cccc2n1Cc1ccccc1-c1ccccc1 [ILY-4001, 2-(3-(2-amino-2-oxoacetyl)-1-(biphenyl-2-ylmethyl)-2-methyl-1H-indol-4-yloxy)acetic acid] | around 1.66×10^−7 cm/s | stable at low pH | ~200 | significantly reduced body weight gains | approaching that achieved in the PLA2 (−/−) mice | significantly reduced body weight gains | approaching that achieved in the PLA2 (−/−) mice | comparable to that achieved in the PLA2 (−/−) mice | ~150 | substantially reduced | substantially reduced | substantially reduced | substantially reduced | moderately beneficial effect | a beneficial effect was not observed | relatively low absorption | ~72 |
